Measured values taken from article PMC6158327, “Negative Allosteric Modulators of mGlu7 Receptor as Putative Antipsychotic Drugs” (Frontiers in Molecular Neuroscience, 2018).

Columns and labels:
Cytochrome P450 1A2 = target: T1, Cytochrome P450 1A2 (Homo sapiens, UniProt P05177); assay: Cytochrome P450 inhibition, 1A2; type: in vitro ADME
T1 sequence (P05177 1-516): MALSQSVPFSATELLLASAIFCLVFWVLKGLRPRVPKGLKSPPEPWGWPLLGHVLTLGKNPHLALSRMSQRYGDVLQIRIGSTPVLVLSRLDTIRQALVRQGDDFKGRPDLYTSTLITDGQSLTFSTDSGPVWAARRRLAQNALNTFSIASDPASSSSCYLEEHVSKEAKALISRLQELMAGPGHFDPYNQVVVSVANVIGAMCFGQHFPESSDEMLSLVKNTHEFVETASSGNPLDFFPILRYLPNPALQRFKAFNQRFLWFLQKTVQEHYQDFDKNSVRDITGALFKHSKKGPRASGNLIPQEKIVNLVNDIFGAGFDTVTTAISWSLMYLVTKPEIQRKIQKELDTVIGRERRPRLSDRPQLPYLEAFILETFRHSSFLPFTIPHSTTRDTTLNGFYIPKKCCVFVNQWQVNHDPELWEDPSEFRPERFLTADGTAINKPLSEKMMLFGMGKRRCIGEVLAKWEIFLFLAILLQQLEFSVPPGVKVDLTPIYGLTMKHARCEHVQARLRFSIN

Cytochrome P450 2C9 = Cytochrome P450 2C9 (Homo sapiens, UniProt P11712); assay: Cytochrome P450 inhibition, 2C9; type: in vitro ADME
Cytochrome P450 2C19 = Cytochrome P450 2C19 (Homo sapiens, UniProt P33261); assay: Cytochrome P450 inhibition, 2C19; type: in vitro ADME
[1] = Pharmacokinetic study, plasma concentration after i.p. injection; type: in vivo; details: Albino Swiss, ip, mouse, 10 mg/kg i.p.; for Tmax: 10 mg/kg
Procedure: The mice were then perfused with 0.1M PBS to remove remaining blood from the body, and the brains were taken out for the analysis. Blood was centrifuged at 2000 rpm for 10 min at 4°C, and the plasma was collected and frozen at -80°C for further analysis.
Plasma and tissue samples from all drug-treated animals were thawed at room temperature prior to use. Standard protocol of sample preparation: 200 μl acetonitrile was added to the eppendorfs with 50 μl of studied plasma samples or tissue homogenate. Samples were mixed for 5 min on a mixer at 25°C and 1400 rpm. Tubes were then centrifuged at 2000 × g for 15 min at 4°C. About 180 μl of each supernatant was transferred into a plate well. Finally, each sample was injected into the column.
In calibration curve – serial dilution method, plasma was spiked with standard at different concentration levels. Acetonitrile was added. Mixed, centrifuged supernatant was taken.
Plasma and tissue samples from all drug-treated animals at selected time points are analyzed using previously developed a non-validated liquid chromatography-tandem mass spectrometry (LC-MS)/MS method.
LC/MS analysis was carried on a Bruker amaZon SL mass spectrometer using positive/ negative ion ESI mode. Chromatographic separation was achieved on a Ascentis Express C18 column, (5 cm × 2.1 mm, […], Supelco Technologies) at room temperature with a thermostatted column oven. A gradient elution of eluents A [acetonitrile (LiChrosolv, Reag. Ph Eur) +0.1% formic acid (Sigma–Aldrich, 98–100%)] and B (water +0.1% formic acid) was used for separation. The flow rate was set at 1 ml/min. The injection volume was 20 μl, and the time of injection was 4 min.
An Ion trap mass spectrometer (Bruker amaZon SL) was equipped with an electrospray source, operating in the positive/negative ion mode. Data were collected and processes using Bruker Quant Analysis software. Quantification of analytes was performed in SIM mode.

rotarod performance = assay: Rotarod test (motor coordination); type: in vivo, Albino Swiss mice; details: 5, 15, and 30 mg/kg i.p., 30 min before the test trial, mice
Procedure: The animals were trained for 3 consecutive days at the speed of 18 rpm, one session per day for 3 min. If a mice fell during the habituation period, it was placed back on the apparatus. On the following day, the test trial was performed. After the mice were placed on the apparatus (Mouse Rota-Rod NG, UGO BASILE S.R.L.) moving at the speed of 12 rpm, the accelerating mode was started (maximum speed – 24 rpm). The latency to fall was measured during 3-min test session.

[2] = tested on: MK-801-induced hyperactivity; assay: MK-801-induced hyperactivity; type: in vivo, Albino Swiss mice; details: 30 min prior to MK-801 (0.35 mg/kg, i.p.), mice
Procedure: The locomotor activity was recorded individually for each animal in OPTO-M3 locomotor activity cages (Columbus Instrument) linked online to a compatible PC activity, as described previously by [Woźniak et al., 2016b]. Each cage (13 cm × 23 cm × 15 cm) was surrounded with an array of photocell beams. […] The locomotor activity was measured for 60 min immediately after MK-801 administration.

[3] = tested on: field potentials in frontal cortical slices; assay: Electrophysiology: field potentials in frontal cortical slices, mGlu7 KO mice; details: for Before-after effect of the drug on FP amplitude: KO animals; for S (factor proportional to the slope of the curve) / Uh (stimulation intensity evoking FP of half-maximum amplitude) / Vmax (maximum FP amplitude, Boltzmann fit): slices from mGlu7 KO mice, after 20 min drug superfusion
From the text: Mice (wild and KO, approx. 25 g) were housed under a controlled light/dark cycle (light on: 0700–1900) and had free access to standard food and tap water. Mice were anesthetized with isoflurane (Aerrane, Baxter) decapitated, their brains were dissected and immersed in an ice-cold artificial cerebrospinal fluid (ACSF) of the following composition (in mM): NaCl (130), KCl (5), CaCl2 (2.5), MgSO4 (1.3), KH2PO4 (1.25), NaHCO3 (26), and glucose (10), bubbled with a mixture of 95% O2/5% CO2 to pH 7.4. Frontal cortical slices (bregma 1.9–1.4, 380 μm) were cut in a coronal plane using a vibrating microtome and they were stored at 32°C. A single slice was next transferred to the recording chamber (32°C ± 0.5°C) and superfused at 2.5 ml/min with a ACSF.
A bipolar stimulating electrode (FHC) was placed approx. 2 mm lateral to the midline and approx. 1.0 mm below the pial surface (in layer V) (Figure 1). Stimuli (duration: 0.2 ms) were applied at 0.033 Hz using a constant-current stimulus isolation unit (WPI). Field potentials (FPs) were recorded using glass micropipettes filled with ACSF (1–3 MΩ), which were placed approx. 0.2 mm below the cortical surface (in layer II/III). FPs were amplified (Axoprobe 1A, Axon Instruments), A/D converted at 10 kHz and stored using Micro1401 interface and Signal 4 software (CED).
The stimulus–response curves obtained for each slice were fit with the Boltzmann equation: Vi = Vmax/(1 + exp[(u - Uh)/-S]), where Vmax is the maximum FP amplitude; u is the stimulation intensity; Uh is the stimulation intensity evoking FP of half-maximum amplitude; S is the factor proportional to the slope of the curve; “exp” is exponentiation – mathematical operation. The results are expressed as the means ± SEM. Statistical analyses were carried out using t-test ([Tokarski et al., 2011]).
For each slice, at the beginning of the experiment an input-output curve was generated in ACSF. A stimulus-response (input-output) curve was made for each slice. […] One response was recorded at each stimulation intensity. […] Statistical analyzes were carried out using paired t-test and ANOVA.

Cytochrome P450 2C9, sequence (P11712 whole entry): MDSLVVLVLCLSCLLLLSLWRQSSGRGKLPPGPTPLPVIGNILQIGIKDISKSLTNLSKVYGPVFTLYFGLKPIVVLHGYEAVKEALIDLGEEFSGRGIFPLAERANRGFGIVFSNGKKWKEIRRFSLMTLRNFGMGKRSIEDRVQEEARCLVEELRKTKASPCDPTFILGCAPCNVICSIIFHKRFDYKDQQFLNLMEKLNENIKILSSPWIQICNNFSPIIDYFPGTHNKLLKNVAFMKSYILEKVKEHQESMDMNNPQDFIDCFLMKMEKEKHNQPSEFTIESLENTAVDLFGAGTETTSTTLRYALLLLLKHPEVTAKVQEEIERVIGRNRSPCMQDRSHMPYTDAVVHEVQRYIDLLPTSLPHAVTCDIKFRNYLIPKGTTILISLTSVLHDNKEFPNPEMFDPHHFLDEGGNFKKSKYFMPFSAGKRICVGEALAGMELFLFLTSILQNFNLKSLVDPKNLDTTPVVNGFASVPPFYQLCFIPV
Cytochrome P450 2C19, sequence (P33261 whole entry): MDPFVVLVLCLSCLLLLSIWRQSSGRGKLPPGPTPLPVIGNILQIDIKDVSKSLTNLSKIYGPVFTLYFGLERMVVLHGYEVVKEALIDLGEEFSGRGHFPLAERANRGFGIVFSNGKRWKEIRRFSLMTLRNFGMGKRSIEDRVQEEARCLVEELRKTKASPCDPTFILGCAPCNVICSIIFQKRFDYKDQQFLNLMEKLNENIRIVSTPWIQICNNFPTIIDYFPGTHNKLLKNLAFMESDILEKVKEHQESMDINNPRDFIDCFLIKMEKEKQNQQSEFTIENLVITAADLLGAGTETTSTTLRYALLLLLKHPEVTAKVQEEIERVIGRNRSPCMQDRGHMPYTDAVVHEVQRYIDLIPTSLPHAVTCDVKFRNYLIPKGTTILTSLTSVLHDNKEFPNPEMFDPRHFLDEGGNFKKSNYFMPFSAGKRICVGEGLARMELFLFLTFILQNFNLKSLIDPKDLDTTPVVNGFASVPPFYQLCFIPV

Structure (SMILES) | IC50 (Cytochrome P450 1A2) [µM] | IC50 (Cytochrome P450 2C9) [µM] | IC50 (Cytochrome P450 2C19) [µM] | AUC [1] [µM·h] | Cmax [1] [µM] | half-life [1] [min] | Tmax [1] [min] | Motor impairments in the rotarod test (latency to fall) (rotarod performance) | Effect on MK-801-induced hyperactivity ([2]; 5 mg/kg i.p.) | Effect on MK-801-induced hyperactivity ([2]; 15 mg/kg i.p.) | Before-after effect of the drug on FP amplitude [3] | S (factor proportional to the slope of the curve) [3] | Uh (stimulation intensity evoking FP of half-maximum amplitude) [3] | Vmax (maximum FP amplitude, Boltzmann fit) [3]
CCc1nc2c(o1)CC(c1ccc(C)cc1C)CC2=O (stereo not drawn) [ADX71743, 6-(2,4-Dimethylphenyl)-2-ethyl-6,7-dihydro-4(5H)-benzoxazolone] | > 10 | > 10 | 3.3 to 10 | 1.9 | 3.73 | 54 | 15 | did not induce detectable motor impairments | decreased MK-801-induced hyperactivity in a statistically significant way | decreased MK-801-induced hyperactivity in a statistically significant way | 106% | 7.12 ± 0.41 | 26.06 ± 1.18 | 2.36 ± 0.18
COc1ccc(-c2cc3onc(-c4ccncc4)c3c(=O)n2C)cc1 [MMPIP, 6-(4-Methoxyphenyl)-5-methyl-3-(4-pyridinyl)-isoxazolo(4,5-c)pyridin-4(5H)-one] | > 10 | > 10 | < 1.1 | 13.5 | 9.85 | 69.6 | 30 | did not induce detectable motor impairments |  | significant reversal of MK-801-induced effect | 100,1% | 8.6 ± 1.01 | 22.1 ± 1.4 | 2.16 ± 0.2
